In PMC10715162 (Microbiology Spectrum, 2023):

Biological target: T1, F-ATP synthase subunit γ (in MsF1-αβγH65W) (Mycolicibacterium smegmatis, UniProt A0R201, H65W)
T1 construct: gene atpG; recombinant MsF1-αβγH65W complex; with F-ATP synthase subunits α and β
Test: tryptophan fluorescence quenching titration
Format: binding

T1 sequence (A0R201 2-307 H65W): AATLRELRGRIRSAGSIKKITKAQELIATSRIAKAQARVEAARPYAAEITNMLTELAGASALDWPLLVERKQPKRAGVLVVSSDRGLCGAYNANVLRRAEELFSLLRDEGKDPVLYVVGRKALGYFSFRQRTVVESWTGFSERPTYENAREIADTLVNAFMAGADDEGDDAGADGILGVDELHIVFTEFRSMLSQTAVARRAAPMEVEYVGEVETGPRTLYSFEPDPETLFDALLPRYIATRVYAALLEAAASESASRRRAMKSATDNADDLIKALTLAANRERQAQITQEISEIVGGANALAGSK
T1 sequence (A0R202 2-548 partner): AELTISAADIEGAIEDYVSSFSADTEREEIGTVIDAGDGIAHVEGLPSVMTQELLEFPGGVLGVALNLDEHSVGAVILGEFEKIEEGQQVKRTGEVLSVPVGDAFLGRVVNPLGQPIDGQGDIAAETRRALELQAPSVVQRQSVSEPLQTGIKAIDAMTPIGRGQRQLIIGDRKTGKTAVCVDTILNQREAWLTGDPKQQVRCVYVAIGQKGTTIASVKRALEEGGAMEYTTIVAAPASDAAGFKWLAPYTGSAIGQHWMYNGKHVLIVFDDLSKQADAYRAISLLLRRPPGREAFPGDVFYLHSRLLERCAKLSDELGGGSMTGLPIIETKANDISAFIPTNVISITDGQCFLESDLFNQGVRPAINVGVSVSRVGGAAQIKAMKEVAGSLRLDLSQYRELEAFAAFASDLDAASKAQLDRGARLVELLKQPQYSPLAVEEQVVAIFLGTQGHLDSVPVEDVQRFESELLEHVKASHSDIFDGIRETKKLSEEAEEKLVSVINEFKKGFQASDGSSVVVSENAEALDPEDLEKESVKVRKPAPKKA
T1 sequence (A0R200 2-475 partner): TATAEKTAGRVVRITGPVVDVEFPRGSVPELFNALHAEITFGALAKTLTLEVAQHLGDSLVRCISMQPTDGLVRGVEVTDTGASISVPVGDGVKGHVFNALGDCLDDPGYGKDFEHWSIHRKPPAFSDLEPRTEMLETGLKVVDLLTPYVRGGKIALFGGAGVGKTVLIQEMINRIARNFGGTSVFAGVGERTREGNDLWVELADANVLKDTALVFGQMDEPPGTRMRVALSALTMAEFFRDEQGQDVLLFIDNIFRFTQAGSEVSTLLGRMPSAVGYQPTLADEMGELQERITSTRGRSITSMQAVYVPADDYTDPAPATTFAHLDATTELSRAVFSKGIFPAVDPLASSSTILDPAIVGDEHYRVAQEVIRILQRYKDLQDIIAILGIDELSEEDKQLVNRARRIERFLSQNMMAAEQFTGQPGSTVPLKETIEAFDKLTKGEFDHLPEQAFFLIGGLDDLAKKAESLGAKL

## CCNc1cc(C)nc(Nc2ccc3nc(-c4ccc(Cl)cc4)[nH]c3c2)n1 [GaMF1.39]
  Kd: 0.7 ± 0.09 µM
